Read-outs that look alike come from different tables or passages of the source.
Legend:
[1] = test system: Pig esophageal epithelium; experiment: in vitro permeation in the Franz cell (model of sublingual absorption); details: FIG. 2
Experimental: Sublingual absorption of Fe++ compounds was evaluated by means of in vitro permeation experiments using the Franz cell exemplified in FIG. 1. Pig esophageal epithelium was used as membrane. This experimental model is recognized as valid and reliable in the assessment of sublingual absorption of drugs [I. Diaz Del Consuelo, G. P. Pizzolato, F. Falsom, R. H. Guy, and Y. Jacques.: Evaluation of pig esophageal mucosa as a permeability barrier model for buccosal tissue. J. Pharm. […] Arch. […] Membrane preparation occurred by following the method described here. The esophagi were taken from the animals within one hour after sacrifice. The mucosa was separated from the muscle tissue with a lancet. To separate the epithelium, the mucosa was immersed in distilled water at 60° C. for 2 minutes and then the epithelium was removed from the underlying tissue with the aid of a spatula. The tissues thus prepared were stored at −20° C. until the time of use, when they were thawed to room temperature before being mounted on the vertical diffusion cells of the Franz type, a schematic view of which is shown in FIG. 1. The esophageal epithelium was placed on a regenerated cellulose filter (pore diameter 0.45 μm) with the luminal side facing up, and mounted between the donor and receptor compartments of the Franz cells. […] The exposed surface was 0.6 cm^2. The receptor compartment was filled with approximately 4 ml of physiological solution (0.9% NaCl w/v) and kept under constant magnetic agitation for the entire duration of the experiment. The entire system was thermostat-controlled at 37° C. Sampling of the receptor compartment was performed by drawing 200 μl of receptor solution, which were replaced immediately with an equal volume of fresh physiological solution. The samples were taken at preset time intervals, specifically at 0, 1, 2, 3, 4, 5 and 6 hours.
4 g of powder were suspended in 10 ml of physiological solution and left under agitation for 15 minutes, then the solution was filtered with regenerated cellulose filters (pore diameter 0.45 μm).
6 g of powder were suspended in 10 ml of physiological solution. The suspension was left under magnetic agitation for 25 minutes and then filtered with regenerated cellulose filters (pore diameter 0.45 μm).
7 g of powder were suspended in 6 ml of physiological solution. The suspension was left under magnetic agitation for 1 hour; at the end it was filtered with regenerated cellulose filters (pore diameter 0.45 μm).
An excess of ascorbic acid (2 g) was added to the solution. The suspension was left under magnetic agitation for 30 minutes and after filtration through regenerated cellulose filters (pore diameter 0.45 μm) was used as it was.
4 g of powder were suspended in 10 ml of physiological solution. The suspension was left under magnetic agitation for 15 hours, at the end of which it was filtered with regenerated cellulose filters (pore diameter 0.45 μm).
An excess of powder was suspended in 10 ml of physiological solution. The suspension was left under magnetic agitation for 15 hours, at the end of which it was filtered with regenerated cellulose filters (pore diameter 0.45 μm).

[2] = randomized clinical study, sublingual administration of 30 mg of Fe2+ to healthy volunteers; assay type: in vivo, human; details: for Serum Fe / Transferrin saturation / Total iron / NTBI (free non transferrin bound iron): 30 mg Fe2+ sublingual (6 sachets of example 6), fasting healthy volunteers n=2, average; for Total iron / NTBI (free non transferrin bound iron): ICP-MS; for NTBI (free non transferrin bound iron): ultrafiltration
Experimental: The participants were hospitalized for two days prior to administration until the next day and were under medical observation.
The samples were then analyzed with respect to the trend of (average) concentrations of various indicators over time.
Total iron measured in micrograms/dl (ICP-MS)
Free iron by ultrafiltration measured in micromoles/liter (=NTBI) (ICP-MS)
Total iron binding capacity (TIBC) measured in micrograms/dl (column separation, Vitros analyzer)
Transferrin saturation (PTS) measured in %
Serum iron (SI), measured in micrograms/dl, colorimetric method (Vitros analyzer)

[3] = 100 mg of Fe2+ orally, healthy volunteers, Dresow et al., FIG. 5, cited from earlier work

Substance: ferrous ascorbate [Fe++ ascorbate]
- permeated divalent Fe ([1]; 50 mg/ml solution, in the presence of ascorbic acid, pH 2.6, after 3 hours): above 150 micrograms/square centimeter
- permeated divalent Fe ([1]; 50 mg/ml solution, in the presence of ascorbic acid, pH 2.6, after 4 hours): approximately 200 micrograms/square centimeter
- permeated divalent Fe ([1]; 350 mg/ml solution, in the presence of ascorbic acid, pH 4.4, after 3 hours): below 150 micrograms/square centimeter
- permeated divalent Fe ([1]; 350 mg/ml solution, in the presence of ascorbic acid, pH 4.4, after 4 hours): approximately 200 micrograms/square centimeter
- permeated divalent Fe ([1]; 400 mg/ml solution, in the absence of ascorbic acid, pH 4.4, after 3 hours): above 100 micrograms/square centimeter
- permeated divalent Fe ([1]; 400 mg/ml solution, in the absence of ascorbic acid, pH 4.4, after 6 hours): approximately 150 micrograms/square centimeter
- permeated divalent Fe ([1]; 600 mg/ml solution, in the absence of ascorbic acid, pH 4.4, after 3 hours): above 100 micrograms/square centimeter
- permeated divalent Fe ([1]; 600 mg/ml solution, in the absence of ascorbic acid, pH 4.4, after 6 hours): approximately 125 micrograms/square centimeter
- permeated divalent Fe ([1]; 1000 mg/ml solution, in the absence of ascorbic acid, pH 4.4, after 3 hours): approximately 50 micrograms/square centimeter
- permeated divalent Fe ([1]; 1000 mg/ml solution, in the absence of ascorbic acid, pH 4.4, after 5 hours): approximately 100 micrograms/square centimeter
- Serum Fe ([2]; time 0 h): 0 µg/dL
- Transferrin saturation ([2]; time 0 min (at administration)): ~24%
- Serum Fe ([2]; time 0.033 h): 5.5 µg/dL
- Transferrin saturation ([2]; time 2 min): 28%
- Serum Fe ([2]; time 0.100 h): 7 µg/dL
- Transferrin saturation ([2]; time 6 min): 28%
- Serum Fe ([2]; time 0.200 h): 6 µg/dL
- Transferrin saturation ([2]; time 12 min): 28.5%
- Serum Fe ([2]; time 0.330 h): 10 µg/dL
- Transferrin saturation ([2]; time 20 min): 26.5%
- Serum Fe ([2]; time 0.500 h): 24 µg/dL
- Transferrin saturation ([2]; time 30 min): 36%
- Serum Fe ([2]; time 0.750 h): 51.5 µg/dL
- Transferrin saturation ([2]; time 45 min): 40.5%
- Serum Fe ([2]; time 1.000 h): 72 µg/dL
- Transferrin saturation ([2]; time 60 min): 50%
- Serum Fe ([2]; time 1.250 h): 91 µg/dL
- Transferrin saturation ([2]; time 75 min): 51.5%
- Serum Fe ([2]; time 1.500 h): 110.5 µg/dL
- Transferrin saturation ([2]; time 90 min): 60%
- Serum Fe ([2]; time 1.750 h): 118.5 µg/dL
- Transferrin saturation ([2]; time 105 min): 49.5%
- Serum Fe ([2]; time 2.000 h): 129 µg/dL
- Transferrin saturation ([2]; time 120 min (2 hours), listed as Fe2+ (as ascorbate)): 65.5%
- Transferrin saturation ([2]; time 120 min (2 hours), listed as Fe2+ Ascorbate): 66.5%
- increase in transferrin saturation (PTS) ([2]; 30 mg of Fe2+ sublingual, healthy volunteers, after 2 hours versus time of administration): 42.5%
- free iron (NTBI) ([2]; 30 mg of Fe2+ sublingual, healthy volunteers, after 2 hours, from 0): 0.34 µmol/L
- Total iron ([2]; time 0.00 h): 0 µg/dL
- Total iron ([2]; time 0.03 h): -7.4 µg/dL
- Total iron ([2]; time 0.10 h): 6.2 µg/dL
- Total iron ([2]; time 0.20 h): -13.54 µg/dL
- Total iron ([2]; time 0.33 h): 5.95 µg/dL
- Total iron ([2]; time 0.50 h): 6.37 µg/dL
- Total iron ([2]; time 0.75 h): 41.58 µg/dL
- Total iron ([2]; time 1.00 h): 51.01 µg/dL
- Total iron ([2]; time 1.25 h): 80.17 µg/dL
- Total iron ([2]; time 1.50 h): 90.15 µg/dL
- Total iron ([2]; time 1.75 h): 95.7 µg/dL
- Total iron ([2]; time 2.00 h): 110.94 µg/dL
- NTBI (free non transferrin bound iron) ([2]; time 0 min): 0.000 µmol/L
- NTBI (free non transferrin bound iron) ([2]; time 2 min): -0.306 µmol/L
- NTBI (free non transferrin bound iron) ([2]; time 6 min): -0.215 µmol/L
- NTBI (free non transferrin bound iron) ([2]; time 12 min): 0.029 µmol/L
- NTBI (free non transferrin bound iron) ([2]; time 20 min): 0.067 µmol/L
- NTBI (free non transferrin bound iron) ([2]; time 30 min): 0.106 µmol/L
- NTBI (free non transferrin bound iron) ([2]; time 45 min): 0.448 µmol/L
- NTBI (free non transferrin bound iron) ([2]; time 60 min): 0.311 µmol/L
- NTBI (free non transferrin bound iron) ([2]; time 75 min): 1.191 µmol/L
- NTBI (free non transferrin bound iron) ([2]; time 90 min): 0.084 µmol/L
- NTBI (free non transferrin bound iron) ([2]; time 105 min): 0.806 µmol/L
- NTBI (free non transferrin bound iron) ([2]; time 120 min): 0.339 µmol/L
- increase in transferrin saturation ([3]; after 2 hours): approximately 45%
- transferrin saturation (absolute) ([3]; after two hours): approximately 75%
- Transferrin saturation ([3]; at the time of administration): approximately 30%
- free iron (NTBI) ([3]; within two hours, from 0): 6.7 µmol/L

— US10543216B2, “Modus of administration of iron, and new formulations adapted for the said goal” (BIOFER S.P.A., priority 2013, dated 2020)
